In brackets after ≈: the same amount, converted by molar mass.
Tests used:
Format in all cases: functional
[1] = tested on: Mycobacterium tuberculosis; test: Antimycobacterial activity against 1-(2-(4-((5-chloro-6-methylpyridin-3-yl)methylamino)piperidin-1-yl)ethyl)-7-fluoro-1,5-naphthyridin-2(1H)-one resistant Mycobacterium tuberculosis H37Rv harboring DNA gyraseA D89N mutant incubated for 7 days by microdilution method
[2] = tested on: Mycobacterium tuberculosis; test: Antimycobacterial activity against 6-((1-(2-(7-chloro-2-oxo-1,8-naphthyridin-1(2H)-yl)ethyl)piperidin-4-ylamino)methyl)-2H-pyrido[3,2-b][1,4]oxazin-3(4H)-one resistant Mycobacterium tuberculosis H37Rv harboring DNA gyraseA A74V mutant incubated for 7 days by microdilution method
[3] = tested on: Mycobacterium tuberculosis; test: Antimycobacterial activity against moxifloxacin resistant Mycobacterium tuberculosis H37Rv harboring DNA gyraseA G88N mutant incubated for 7 days by microdilution method
[4] = tested on: Mycobacterium tuberculosis; test: Ratio of MIC for 1-(2-(4-((5-chloro-6-methylpyridin-3-yl)methylamino)piperidin-1-yl)ethyl)-7-fluoro-1,5-naphthyridin-2(1H)-one resistant Mycobacterium tuberculosis H37Rv harboring DNA gyraseA D89N mutant to MIC for Mycobacterium tuberculosis H37Rv ATCC 27294
[5] = tested on: Mycobacterium tuberculosis; test: Ratio of MIC for 6-((1-(2-(7-chloro-2-oxo-1,8-naphthyridin-1(2H)-yl)ethyl)piperidin-4-ylamino)methyl)-2H-pyrido[3,2-b][1,4]oxazin-3(4H)-one resistant Mycobacterium tuberculosis H37Rv harboring DNA gyraseA A74V mutant to MIC for Mycobacterium tuberculosis H37Rv ATCC 27294

| SMILES | MIC [1] [µM] | MIC [2] [µM] | MIC [3] [µM] | Ratio [4] | Ratio [5] |
| --- | --- | --- | --- | --- | --- |
| COc1c(N2C[C@@H]3CCCN[C@@H]3C2)c(F)cc2c(=O)c(C(=O)O)cn(C3CC3)c12 [MOXIFLOXACIN] | 2 (≈ 0.803 µg/mL) | 0.25 (≈ 0.1 µg/mL) | 4 (≈ 1.61 µg/mL) | – | – |
| O=C1COc2ccc(CNC3CCN(CCn4c(=O)ccc5ccc(Cl)nc54)CC3)nc2N1 | >100 | 4 (≈ 1.88 µg/mL) | <0.19 | – | – |
| Cc1ncc(CNC2CCN(CCn3c(=O)ccc4ncc(F)cc43)CC2)cc1Cl | >100 | 2 (≈ 0.86 µg/mL) | <0.19 | – | – |
| O=C1COc2ccc(CNC3CCN(CCn4c(=O)ccc5ccc(Oc6cncnc6)nc54)CC3)nc2N1 | >100 | 50 (≈ 26.4 µg/mL) | 0.06 (≈ 0.0317 µg/mL) | >25 | >25 |
| O=C(O)c1cn(C2CC2)c2cc(N3CCNCC3)c(F)cc2c1=O [CIPROFLOXACIN] | 16 (≈ 5.3 µg/mL) | 0.5 (≈ 0.166 µg/mL) | 8 (≈ 2.65 µg/mL) | – | – |
| O=C1COc2ccc(CN[C@@H]3CCN(CCn4c(=O)ccc5ncc(Oc6cccnc6)cc54)C[C@@H]3F)nc2N1 | >100 | 50 (≈ 27.3 µg/mL) | 0.39 (≈ 0.213 µg/mL) | – | – |
| NNC(=O)c1ccncc1 [ISONIAZID] | 0.03 (≈ 0.00411 µg/mL) | 0.06 (≈ 0.00823 µg/mL) | 0.06 (≈ 0.00823 µg/mL) | – | – |
| O=C1COc2ccc(CNC3CCN(CCn4c(=O)ccc5ccc(Oc6cccnc6)nc54)CC3)nc2N1 | >100 | 8 (≈ 4.22 µg/mL) | 0.78 (≈ 0.412 µg/mL) | >25 | >25 |
| CO[C@H]1/C=C/O[C@@]2(C)Oc3c(C)c(O)c4c(O)c(c(/C=N/N5CCN(C)CC5)c(O)c4c3C2=O)NC(=O)/C(C)=C\C=C\[C@H](C)[C@H](O)[C@@H](C)[C@@H](O)[C@@H](C)[C@H](OC(C)=O)[C@@H]1C [RIFAMPIN] | – | 0.008 (≈ 0.00658 µg/mL) | 0.008 (≈ 0.00658 µg/mL) | – | – |
